From publication PMC5694347 (Clinical cancer research : an official journal of the …, 2015)
Marks after values point to notes of the source that are not given here.

Tested on: patients with relapsed and/or refractory lymphoma or MM
Experiment: Safety: adverse events graded by NCI CTCAE version 3.0
[1] = Schedule A, n=27, high-level term

## NS(=O)(=O)OC[C@@H]1C[C@@H](n2ccc3c(N[C@H]4CCc5ccccc54)ncnc32)C[C@@H]1O [pevonedistat]
Schedule A, n=27
  ALT increased, All grades: 12 (44) n (%)
  AST increased, All grades: 12 (44) n (%)
  Abdominal discomfort, All grades: 1 (4) n (%)
  Abdominal discomfort, Grade ≥3: 0 n (%)
  Anemia, All grades: 7 (26) n (%)
  Anemia, Grade ≥3: 5 (19) n (%)
  Any AE, All grades: 27 (100) n (%)
  Any AE, Grade ≥3: 16 (59) n (%)
  Asthenia, All grades: 2 (7) n (%)
  Asthenia, Grade ≥3: 0 n (%)
  Back pain, All grades: 3 (11) n (%)
  Back pain, Grade ≥3: 0 n (%)
  Blood alkaline phosphatase increased, All grades: 6 (22) n (%)
  Blood alkaline phosphatase increased, Grade ≥3: 0 n (%)
  Blood creatinine increased, All grades: 4 (15) n (%)
  Blood creatinine increased, Grade ≥3: 0 n (%)
  Chills, All grades: 5 (19) n (%)
  Chills, Grade ≥3: 0 n (%)
  Constipation, All grades: 10 (37) n (%)
  Constipation, Grade ≥3: 0 n (%)
  Cough, All grades: 2 (7) n (%)
  Cough, Grade ≥3: 0 n (%)
  Decreased appetite, All grades: 6 (22) n (%)
  Decreased appetite, Grade ≥3: 0 n (%)
  Dehydration, All grades: 2 (7) n (%)
  Dehydration, Grade ≥3: 0 n (%)
  Diarrhea, All grades: 7 (26) n (%)
  Diarrhea, Grade ≥3: 1 (4) n (%)
  Dizziness, All grades: 6 (22) n (%)
  Dizziness, Grade ≥3: 0 n (%)
  Dyspepsia, All grades: 0 n (%)
  Dyspepsia, Grade ≥3: 0 n (%)
  Dyspnea exertional, All grades: 0 n (%)
  Dyspnea exertional, Grade ≥3: 0 n (%)
  Dyspnea, All grades: 5 (19) n (%)
  Dyspnea, Grade ≥3: 1 (4) n (%)
  Fatigue, All grades: 18 (67) n (%)
  Fatigue, Grade ≥3: 2 (7) n (%)
  Headache, All grades: 7 (26) n (%)
  Headache, Grade ≥3: 0 n (%)
  Hyperbilirubinemia, All grades: 1 (4) n (%)
  Hyperbilirubinemia, Grade ≥3: 0 n (%)
  Hypercalcemia, All grades: 5 (19) n (%)
  Hypercalcemia, Grade ≥3: 2 (7) n (%)
  Hyperkalemia, All grades: 4 (15) n (%)
  Hyperkalemia, Grade ≥3: 1 (4) n (%)
  Hypomagnesemia, All grades: 6 (22) n (%)
  Hypomagnesemia, Grade ≥3: 0 n (%)
  Hypophosphatemia, All grades: 5 (19) n (%)
  Hypophosphatemia, Grade ≥3: 3 (11) n (%)
  Insomnia, All grades: 3 (11) n (%)
  Insomnia, Grade ≥3: 0 n (%)
  Muscle spasms, All grades: 4 (15) n (%)
  Myalgia, All grades: 10 (37) n (%)
  Myalgia, Grade ≥3: 0 n (%)
  Nausea, All grades: 12 (44) n (%)
  Nausea, Grade ≥3: 0 n (%)
  Neutropenia, All grades: 2 (7) n (%)
  Neutropenia, Grade ≥3: 2 (7) n (%)
  Pain in extremity, All grades: 4 (15) n (%)
  Pain in extremity, Grade ≥3: 0 n (%)
  Pain, All grades: 6 (22) n (%)
  Pain, Grade ≥3: 1 (4) n (%)
  Paresthesia, All grades: 2 (7) n (%)
  Paresthesia, Grade ≥3: 0 n (%)
  Peripheral edema, All grades: 3 (11) n (%)
  Peripheral edema, Grade ≥3: 0 n (%)
  Pneumonia, All grades: 1 (4) n (%)
  Pneumonia, Grade ≥3: 1 (4) n (%)
  Productive cough, All grades: 2 (7) n (%)
  Productive cough, Grade ≥3: 0 n (%)
  Pyrexia, All grades: 11 (41) n (%)
  Pyrexia, Grade ≥3: 0 n (%)
  Sinus tachycardia, All grades: 2 (7) n (%)
  Sinus tachycardia, Grade ≥3: 1 (4) n (%)
  Thrombocytopenia, All grades: 3 (11) n (%)
  Thrombocytopenia, Grade ≥3: 1 (4) n (%)
  Upper respiratory tract infection, All grades: 3 (11) n (%)
  Upper respiratory tract infection, Grade ≥3: 0 n (%)
  Vision blurred, All grades: 5 (19) n (%)
  Vision blurred, Grade ≥3: 0 n (%)
  Vomiting, All grades: 7 (26) n (%)
  Vomiting, Grade ≥3: 0 n (%)
  Weight decreased, All grades: 1 (4) n (%)
  Weight decreased, Grade ≥3: 0 n (%)
Schedule A, n=27, 1 DLT
  ALT increased, Grade ≥3: 1 (4) ^a n (%)
  AST increased, Grade ≥3: 2 (7) ^a n (%)
  Muscle spasms, Grade ≥3: 1 (4) ^a n (%)
[1]
  Peripheral neuropathies NEC, All grades: 3 (11) n (%)
  Peripheral neuropathies NEC, Grade ≥3: 0 n (%)
Schedule B, n=17
  ALT increased, All grades: 4 (24) n (%)
  ALT increased, Grade ≥3: 1 (6) n (%)
  AST increased, All grades: 2 (12) n (%)
  AST increased, Grade ≥3: 0 n (%)
  Abdominal discomfort, All grades: 3 (18) n (%)
